# Measurements as given in patent publication US7528150B2, “Urea derivatives having vanilloid receptor antagonist activity” (Glaxo Group Limited, priority 2003, dated 2009).
# Target: T1, human VR1 (Homo sapiens, UniProt Q8NER1)
# T1 construct: expressed in transfected cells; host or cells: astrocytoma 1321N1 cells, stably transfected
# Assay: FLIPR based calcium assay, antagonism of capsaicin response in 1321N1 cells stably expressing human VR1
# Format: cell-based
# Settings: transfected astrocytoma 1321N1 cells expressing human VR1; capsaicin as agonist; pKb generated from IC50 using the Cheng-Prusoff equation
# Description: The screen used for the compounds of this invention was based upon a FLIPR based calcium assay, similar to that described by Smart et al. (British Journal of Pharmacology, 2000, 129, 227-230). Transfected astrocytoma 1321N1 cells, stably expressing human VR1, were seeded into FLIPR plates at 25,000 cells/well (96-well plate) and cultured overnight.
# The cells were subsequently loaded in medium containing 4 μM Fluo-3 AM (Molecular Probes) for 2 h, at room temperature, in the dark. The plates were then washed 4 times with Tyrode containing 1.5 mM calcium, without probenecid. The cells were pre-incubated with compound or buffer control at room temperature for 30 min. Capsaicin (Sigma) was then added to the cells. Compounds having antagonist activity against the human VR1 were identified by detecting differences in fluorescence when measured after capsaicin addition, compared with no compound buffer controls. Thus, for example, in the buffer control capsaicin addition results in an increase in intracellular calcium concentration resulting in fluorescence. A compound having antagonist activity blocks the capsaicin binding to the receptor, there is no signalling and therefore no increase in intracellular calcium levels and consequently lower fluorescence. pKb values are generated from the IC50 values using the Cheng-Prusoff equation.
# T1 sequence (Q8NER1 whole entry): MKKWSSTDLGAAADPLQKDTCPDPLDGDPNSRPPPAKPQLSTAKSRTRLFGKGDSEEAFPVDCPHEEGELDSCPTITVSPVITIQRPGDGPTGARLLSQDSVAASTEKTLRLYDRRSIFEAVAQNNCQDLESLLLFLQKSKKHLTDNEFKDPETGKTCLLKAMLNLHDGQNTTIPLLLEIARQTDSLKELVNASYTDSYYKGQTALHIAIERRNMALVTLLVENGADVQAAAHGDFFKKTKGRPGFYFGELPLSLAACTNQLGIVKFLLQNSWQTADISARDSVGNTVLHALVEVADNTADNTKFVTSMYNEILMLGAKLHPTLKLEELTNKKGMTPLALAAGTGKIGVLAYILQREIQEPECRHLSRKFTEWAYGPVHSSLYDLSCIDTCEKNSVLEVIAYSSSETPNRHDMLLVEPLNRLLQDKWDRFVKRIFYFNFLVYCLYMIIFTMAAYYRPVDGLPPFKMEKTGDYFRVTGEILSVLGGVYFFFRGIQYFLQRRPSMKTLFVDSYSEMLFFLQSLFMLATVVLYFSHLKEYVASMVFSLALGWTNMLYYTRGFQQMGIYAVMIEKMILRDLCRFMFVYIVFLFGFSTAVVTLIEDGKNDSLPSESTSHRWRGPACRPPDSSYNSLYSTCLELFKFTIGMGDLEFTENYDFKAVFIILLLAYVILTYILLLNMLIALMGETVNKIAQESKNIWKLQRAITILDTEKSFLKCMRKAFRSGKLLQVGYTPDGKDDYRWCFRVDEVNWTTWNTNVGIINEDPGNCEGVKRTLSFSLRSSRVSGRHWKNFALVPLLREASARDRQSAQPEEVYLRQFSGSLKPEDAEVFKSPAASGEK
row,SMILES,Kb [µM]
1,Cc1cc2c(NC(=O)N[C@@H]3CCN(Cc4ccc(C(F)(F)F)cc4)C3)cccc2cn1 [Example 17],< 0.1
2,Cc1nccc2c(NC(=O)NC3CN(Cc4ccccc4C(F)(F)F)C3)cccc12 [Example 22],< 0.1
3,Cc1cc2c(NC(=O)N[C@@H]3CCN(Cc4cccc(Cl)c4)C3)cccc2cn1 [Example 14],< 0.1
4,Cc1cc2c(NC(=O)N[C@@H]3CCN(Cc4cccc(C(F)(F)F)c4)C3)cccc2cn1 [Example 16],< 0.1
